How the values were obtained:
[1] = molecular target: T1, angiotensin II (AII) receptors (Cavia porcellus, UniProt Q9WV26); test: Test A: displacement of radiolabelled AII binding to cell surface membrane fraction from guinea pig adrenal gland; conditions: guinea pig adrenal gland membranes, read-out: IC50 (concentration for 50% displacement of radiolabelled AII binding)
T1 construct: the source of cell surface membranes is the guinea pig adrenal gland; from tissue; host or cells: guinea pig adrenal gland, cell surface membrane fraction
T1 sequence (Q9WV26 1-359): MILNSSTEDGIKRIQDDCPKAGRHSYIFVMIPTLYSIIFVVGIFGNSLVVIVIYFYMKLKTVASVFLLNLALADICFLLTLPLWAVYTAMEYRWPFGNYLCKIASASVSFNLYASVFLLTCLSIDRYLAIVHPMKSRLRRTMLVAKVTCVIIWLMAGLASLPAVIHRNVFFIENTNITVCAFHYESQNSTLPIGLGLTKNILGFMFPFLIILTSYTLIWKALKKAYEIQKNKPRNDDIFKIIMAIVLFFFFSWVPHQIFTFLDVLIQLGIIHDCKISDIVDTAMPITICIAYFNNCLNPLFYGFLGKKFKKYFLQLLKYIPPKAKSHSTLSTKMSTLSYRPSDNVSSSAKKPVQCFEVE
Method: This in vitro procedure involves the incubation of the test compound initially at a concentration of 100 micromolar (or less) in a buffered mixture containing fixed concentrations of radiolabelled AII and a cell surface membrane fraction prepared from a suitable angiotensin target tissue. In this test, the source of cell surface membranes is the guinea pig adrenal gland which is well known to respond to AII. Interaction of the radiolabelled AII with its receptors (assessed as radiolabel bound to the particulate membrane fraction following removal of unbound radiolabel by a rapid filtration procedure such as is standard in such studies) is antagonized by compounds which also bind to the membrane receptor sites and the degree of antagonism (observed in the test as displacement of membrane-bound radioactivity) is determined readily by comparing the receptor-bound radioactivity in the presence of the test compound at the specified test concentration with a control value determined in the absence of the test compound. Using this procedure compounds showing at least 50% displacement of radiolabelled AII binding at a concentration of 10^-4 M are retested at lower concentrations to determine their potency. […]

[2] = system: pressor responses induced by AII; test: Test C: antagonism of AII-induced pressor responses in terminally-anaesthetised or conscious rats; type: in vivo; conditions: iv, rat, i.v. administration
Method: This in vivo test involves using terminally-anaesthetised or conscious rats in which an arterial catheter has been implanted under anaesthesia for the measurement of changes in blood pressure. The AII antagonistic effects of the test compound following oral or parenteral administration, are assessed against pressor responses induced by AII. To ensure that the effect is specific the effect of the test compound on vasopressin-induced pressor responses may also be determined in the same preparation.

IC50 [1]: 20 nM
SMILES: CCc1cc(OCc2ccc(-c3ccccc3-c3nnn[nH]3)cc2)c2nc(OC)ccc2n1.Cl [Example 4, 2-ethyl-6-methoxy-4-[(2'-(1H-tetrazol-5-yl)-biphenyl-4-yl)methoxy]-1,5-naphthyridine hydrochloride]
ED50 [2]: 0.6 mg/kg

Reference: patent publication US5126344A, “Diazine derivatives and pharmaceutical use” (Imperial Chemical Industries PLC, priority 1989, dated 1992)
